Source: the supplement of paper PMC10721915
± gives the standard deviation of the averaged measurements.

Assays:
Assay in all cases: relative cell growth vs untreated control (GI, NCI-DTP normalisation with time-zero) (fraction of control growth); higher = more growth / less inhibition
Settings in all cases: treatment time: 120 h
[1] = tested on: HT1080
Method: (§1)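 Cancer cell lines in 96-well plates were treated 48 h after seeding with M4076 (ATM inhibitor) and berzosertib (ATR inhibitor), alone or mixed, in 4-fold dilutions for 120 h. Protein was read by sulforhodamine B staining, background-subtracted and normalised NCI-DTP style to untreated control growth. Rows with one concentration equal to 0 are monotherapy.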

[2] = tested on: WSUNHL
Method: as §1

[3] = tested on: BXPC3
Method: as §1

[4] = tested on: PANC1
Method: as §1

[5] = tested on: RDES
Method: as §1

[6] = tested on: MDAMB436
Method: as §1

[7] = tested on: HEPG2
Method: as §1

[8] = tested on: MIAPACA2
Method: as §1

[9] = tested on: SAOS2
Method: as §1

[10] = tested on: NCIH460
Method: as §1

COc1cc2ncc3c(c2cc1-c1cn(C)nc1C)n(-c1c(F)cncc1OC)c(=O)n3C [M4076] + CNCc1ccc(-c2cc(-c3nc(-c4ccc(S(=O)(=O)C(C)C)cc4)cnc3N)on2)cc1 [berzosertib]
relative cell growth
Settings	[1]	[2]	[3]	[4]	[5]	[6]	[7]	[8]	[9]	[10]
concentration of first compound 0.0195 µM, concentration of partner 0 M	1.1 ± 0.02	1.22 ± 0.035	1.17 ± 0.22	1.27 ± 0.16	1.1 ± 0.013	1.1 ± 0.13	1.41 ± 0.32	1.08 ± 0.2	1.16 ± 0.15	1.14 ± 0.19
concentration of first compound 0.0195 µM, concentration of partner 0.2 µM	0.762	1.48	0.548	0.992	1.16	0.856	0.0154	0.643	0.735	0.607
concentration of first compound 0.0781 µM, concentration of partner 0 M	0.574 ± 0.01	1.26 ± 0.036	1.25 ± 0.24	1.2 ± 0.15	1.01 ± 0.012	1.15 ± 0.14	1.4 ± 0.32	1.17 ± 0.22	1.14 ± 0.15	1.16 ± 0.2
concentration of first compound 0.0781 µM, concentration of partner 0.2 µM	0.753	1.47	0.643	1.36	1.16	0.625	0.000629	0.542	0.657	0.678
concentration of first compound 0.313 µM, concentration of partner 0 M	0.481 ± 0.0086	0.983 ± 0.028	1.17 ± 0.22	1.45 ± 0.18	0.941 ± 0.011	0.941 ± 0.11	1.23 ± 0.28	1.03 ± 0.19	1.05 ± 0.14	1.14 ± 0.19
concentration of first compound 0.313 µM, concentration of partner 0.2 µM	-0.0371	1.07	0.481	0.541	1.13	0.374	-0.027	0.269	0.319	0.354
concentration of first compound 1 µM, concentration of partner 0 M	0.54	0.649	0.952	0.96	0.836	0.753	0.829	1.08	0.782	0.972
concentration of first compound 1 µM, concentration of partner 0.0195 µM	0.752	0.896	0.987	0.764	0.933	0.817	0.596	0.891	0.871	0.969
concentration of first compound 1 µM, concentration of partner 0.0781 µM	0.155	0.716	0.78	0.526	0.872	0.574	0.0729	0.439	0.482	0.79
concentration of first compound 1 µM, concentration of partner 0.313 µM	-0.168	-0.00911	0.015	0.0924	0.395	0.148	-0.0203	0.061	0.119	0.0691
concentration of first compound 1 µM, concentration of partner 1.25 µM	-0.178	-0.0958	-0.096	-0.0345	0.0966	-0.0222	-0.023	0.0345	-0.0926	-0.00904
concentration of first compound 1 µM, concentration of partner 5 µM	-0.234	-0.11	-0.0967	-0.0793	-0.0939	-0.02	-0.0325	-0.0126	-0.1	-0.0222
concentration of first compound 1.25 µM, concentration of partner 0 M	0.332 ± 0.0059	0.572 ± 0.016	1.08 ± 0.21	1.1 ± 0.14	0.877 ± 0.011	0.84 ± 0.1	1.16 ± 0.26	1.18 ± 0.22	0.871 ± 0.11	1.11 ± 0.19
concentration of first compound 1.25 µM, concentration of partner 0.2 µM	-0.114	0.294	0.321	0.278	0.973	0.292	-0.0218	0.126	0.146	0.199
concentration of first compound 5 µM, concentration of partner 0 M	0.478 ± 0.0086	0.166 ± 0.0046	0.894 ± 0.17	0.743 ± 0.095	0.681 ± 0.0083	0.684 ± 0.083	0.843 ± 0.19	1.09 ± 0.2	0.652 ± 0.084	1.06 ± 0.18
concentration of first compound 5 µM, concentration of partner 0.2 µM	-0.101	0.0497	0.228	0.309	0.706	0.206	-0.0276	0.157	0.113	0.203

CNCc1ccc(-c2cc(-c3nc(-c4ccc(S(=O)(=O)C(C)C)cc4)cnc3N)on2)cc1 [berzosertib] + COc1cc2ncc3c(c2cc1-c1cn(C)nc1C)n(-c1c(F)cncc1OC)c(=O)n3C [M4076]
relative cell growth, concentration of partner 0 M
Settings	[1]	[2]	[3]	[4]	[5]	[6]	[7]	[8]	[9]	[10]
concentration of first compound 0.0195 µM	2.08 ± 0.29	1.44 ± 0.031	1.18 ± 0.22	1.12 ± 0.1	1.15 ± 0.026	1.03 ± 0.13	1.09 ± 0.22	1.06 ± 0.2	1.16 ± 0.16	1.12 ± 0.2
concentration of first compound 0.0781 µM	2.13 ± 0.3	1.68 ± 0.036	1.14 ± 0.21	1.27 ± 0.11	1.14 ± 0.026	1.13 ± 0.14	0.33 ± 0.067	0.974 ± 0.19	1.11 ± 0.15	1.09 ± 0.2
concentration of first compound 0.2 µM	0.626	1.18	0.588	0.892	1.01	0.673	0.0562	0.661	0.645	0.607
concentration of first compound 0.313 µM	0.0933 ± 0.013	0.779 ± 0.017	0.34 ± 0.063	0.482 ± 0.043	0.873 ± 0.02	0.386 ± 0.049	0.0114 ± 0.0023	0.235 ± 0.045	0.559 ± 0.076	0.357 ± 0.065
concentration of first compound 1.25 µM	-0.162 ± 0.023	-0.0504 ± 0.001	-0.112 ± 0.021	0.094 ± 0.0084	0.254 ± 0.0058	0.0232 ± 0.0032	-0.033 ± 0.0067	0.0129 ± 0.0026	0.0446 ± 0.006	0.0867 ± 0.016
concentration of first compound 5 µM	-0.228 ± 0.032	-0.0908 ± 0.0019	-0.0824 ± 0.015	-0.0643 ± 0.0058	-0.0925 ± 0.0021	-0.0352 ± 0.0043	-0.0501 ± 0.01	-0.0366 ± 0.0069	-0.116 ± 0.016	0.0406 ± 0.0074
